Experimental data reported in publication PMC7037732, “Synthesis of Combretastatin A-4 and 3′-Aminocombretastatin A-4 derivatives with Aminoacid Containing Pendants and Study of their Interaction with Tubulin and as Downregulators of the VEGF, hTERT and c-Myc Gene Expression” (Molecules, 2020).
Values joined by “and” are separate entries in the source; they are usually repeats but may differ in a detail not shown here. Identical values can stand only once.

Columns and labels:
VEGF gene = VEGF gene expression by RT-qPCR in HT-29 cells; assay type: cell-based, human
Description: (§1) The effect on the expression of VEGF, hTERT and c-Myc genes has been studied for CA-4 and its derivatives that show selectivity indexes higher than 0.9 on the HT-29 cell line. The studied derivatives, together with the concentrations to which they have been tested, are CA-4 (15 μM); 4.1 (Gly, 5 μM); 4.5 (L-Pro, 25 μM); 4.9 (L-Met, 25 μM); 6.2 (D-Leu, 25 μM); 6.3 (D-Phe, 25 μM); 6.4 (D-Pro, 25 μM) and 6.5 (D-Ser, 10 μM). The expression of the genes was determined by RT-qPCR methodology, as described in the Materials and Methods section.
(§2) As regards AmCA-4 derivatives, the effect on the expression of the VEGF, hTERT and c-Myc genes has been studied on those that show IC50 in the low nanomolar range on the HT-29 cell line and/or on compounds whose selectivity indexes with respect to this cell line are higher than 1. The studied compounds, together with the concentrations to which they have been tested, are: CA-4 (15 μM), AmCA-4 (15 nM), 7.1 (7 nM), 7.2 (1.5 nM), 7.3 (4 nM), 7.4 (15 nM), 7.5 (2 nM), 7.7 (7 nM), 7.8 (15 nM), 7.9 (30 nM), 8.1 (7 nM), 8.2 (3 nM), 8.3 (10 nM), 8.4 (1.5 nM), 8.5 (4 nM), 8.7 (7 nM), 8.8 (3 nM) and 8.9 (4 nM).
(§3) HT-29 cells at 70–80% confluence were collected, and 1.5 × 10^5 cells were placed in a six-well plate in 1.5 mL of the medium. After 24 h, cells were incubated with the corresponding compounds for 48 h. Cells were collected, and the total cellular RNA from the HT-29 cells was isolated using an Ambion RNA Extraction Kit, according to the manufacturer’s instructions. The cDNA was synthesized by MMLV-RT with […] of extracted RNA and oligo(dT)15, according to the manufacturer’s instructions. Genes were amplified by a thermal cycler and StepOnePlus™ TaqMan® probes. TaqMan® Gene Expression Master Mix Fast, containing the appropriate buffer for the amplification conditions, dNTPs, thermostable DNA polymerase enzyme and a passive reference probe, was used. To amplify each of the genes, the predesigned primers sold by Life Technologies TaqMan® Gene Expression Assays Hs99999903-m1 (β-actin), Hs00900055-m1 (VEGF), Hs00972646-m1 (hTERT) and Hs00153408-m1 (c-Myc) were used.

c-Myc gene = c-Myc gene expression by RT-qPCR in HT-29 cells; assay type: cell-based, human
Description: as §1, §2, §3

[1] = test system: HEK-293 (human embryonic kidney cells); test: Inhibition of cell proliferation (MTT), nontumor HEK-293; assay type: cell-based; conditions: 48 h of treatment (footnote), average ±SD of three experiments
[2] = test system: MCF-7 (breast adenocarcinoma); test: Inhibition of cell proliferation (MTT), MCF-7; assay type: cell-based, human; conditions: 48 h of treatment (footnote), average ±SD of three experiments
purified tubulin = test: Critical concentration (CrC) for the assembly of purified tubulin in GAB; assay type: biochemical; conditions: compound 27.5 μM, tubulin 25 μM, glycerol (GAB) and GTP assembly buffer; control 7.9 ± 1.2
Description: The effect on the self-assembly of tubulin was determined by measuring the critical concentration (CrC).

A-549 cells = test: Cell cycle distribution by flow cytometry; assay type: cell-based, human
Summary of the method: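 A-549 cells were harvested, fixed in cold 70% ethanol (30 min, −20 °C), then stained with 50 µg/mL propidium iodide plus 100 µg/mL RNase A in PBS for 20 min at room temperature in the dark. Flow cytometry used 488 nm excitation and 620 nm emission, giving the percentage of cells in G2/M.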

[3] = HT-29, 48 h; discussion; concentration per compound
[4] = Homo sapiens, HT-29, 48 h, 7 nM, control 100
[5] = Homo sapiens, HEK293, 48 h, Table 2
[6] = Homo sapiens, MCF7, 48 h, Table 2
[7] = A-549, 24 h, concentration per compound as in Tables 6 and 7, control 14%
[8] = Homo sapiens, HT-29, 48 h, 5 μM, control 100
[9] = Homo sapiens, HEK293, 48 h, Table 1
[10] = Homo sapiens, MCF7, 48 h, Table 1
[11] = A-549, 24 h, concentration per compound as in Tables 6 and 7
[12] = Homo sapiens; HT-29, 48 h, 15 nM; control 100
[13] = Homo sapiens, HT-29, 48 h, 30 nM, control 100
[14] = Homo sapiens, HT-29, 48 h, 25 μM, control 100
[15] = Homo sapiens, HT-29, 48 h, 4 nM, control 100
[16] = Homo sapiens; HT-29, 48 h, 15 μM; control (DMSO) 100; normalized to β-actin
[17] = Homo sapiens, HT-29, 48 h, 3 nM, control 100
[18] = Homo sapiens, HT-29, 48 h, 10 nM, control 100
[19] = Homo sapiens; HT-29, 48 h, 25 μM; control 100

COc1ccc(/C=C\c2cc(OC)c(OC)c(OC)c2)cc1NC(=O)[C@@H](N)C(C)O (stereo partly shown) [Compound 8.7]
downregulation of VEGF gene expression (VEGF gene; [3]): more than 60%
mrna remaining at 0.007 µM (VEGF gene; [4]): 15%
downregulation of c-Myc gene expression (c-Myc gene; [3]): more than 60%
mrna remaining at 0.007 µM (c-Myc gene; [4]): 37%
IC50 [1, 5]: 14 ± 3 nM
IC50 [2, 6]: 12 ± 1 nM
CrC (critical concentration) (purified tubulin): 12.3 ± 0.6 µM
G0/G1 (A-549 cells; A-549, 24 h, 2 µM): 31 ± 1%
G2/M (A-549 cells; A-549, 24 h, 2 µM): 51 ± 2%
S (A-549 cells; A-549, 24 h, 2 µM): 18 ± 1%
cells accumulated in the G2/M phase (A-549 cells; [7]): more than 50%

COc1ccc(/C=C\c2cc(OC)c(OC)c(OC)c2)cc1OCC(=O)NCC(=O)O [Compound 4.1]
mrna remaining at 5 µM (VEGF gene; [8]): 45%
mrna remaining at 5 µM (c-Myc gene; [8]): 62%
IC50 [1, 9]: 5000 ± 1000 nM
IC50 [2, 10]: 6000 ± 1000 nM
CrC (critical concentration) (purified tubulin): 9.3 ± 0.4 µM
G0/G1 (A-549 cells; A-549, 24 h, 75 μM): 68%
G2/M (A-549 cells; A-549, 24 h, 75 μM): 20%
S (A-549 cells; A-549, 24 h, 75 μM): 12%
Effect on the cell cycle (A-549 cells; [11]): do not exert any significant effect on the cells

COc1ccc(/C=C\c2cc(OC)c(OC)c(OC)c2)cc1N [AmCA-4, 3′-aminocombretastatin A-4]
mrna remaining at 0.015 µM (VEGF gene; [12]): 67%
mrna remaining at 0.015 µM (c-Myc gene; [12]): 58%
IC50 [1, 5]: 7 ± 1 nM
IC50 [2, 6]: 8 ± 1 nM
CrC (critical concentration) (purified tubulin): 23 ± 3 µM
G0/G1 (A-549 cells; A-549, 24 h, 0.125 µM): 26 ± 1%
G2/M (A-549 cells; A-549, 24 h, 0.125 µM): 59 ± 2%
S (A-549 cells; A-549, 24 h, 0.125 µM): 15 ± 2%

COc1ccc(/C=C\c2cc(OC)c(OC)c(OC)c2)cc1NC(=O)[C@H](CCSC)NC(=O)OCC1c2ccccc2-c2ccccc21 [Compound 7.9]
mrna remaining at 0.03 µM (VEGF gene; [13]): 68%
mrna remaining at 0.03 µM (c-Myc gene; [13]): 61%
IC50 [1, 5]: 8 ± 4 nM
IC50 [2, 6]: 5.1 ± 0.3 nM
CrC (critical concentration) (purified tubulin): 7.1 ± 0.4 µM
G0/G1 (A-549 cells; A-549, 24 h, 2 µM): 72 ± 2%
G2/M (A-549 cells; A-549, 24 h, 2 µM): 10 ± 3%
S (A-549 cells; A-549, 24 h, 2 µM): 18 ± 1%
Effect on the cell cycle (A-549 cells; [11]): do not accumulate a high percentage of cells in phase G2/M

COc1ccc(/C=C\c2cc(OC)c(OC)c(OC)c2)cc1OCC(=O)N[C@H](CC(C)C)C(=O)O [Compound 6.2]
mrna remaining at 25 µM (VEGF gene; [14]): 40%
mrna remaining at 25 µM (c-Myc gene; [14]): 68%
IC50 [1, 9]: 49000 ± 12000 nM
IC50 [2, 10]: 25000 ± 2000 nM
CrC (critical concentration) (purified tubulin): 11 ± 3 µM
G0/G1 (A-549 cells; A-549, 24 h, 75 μM): 85 ± 1%
G2/M (A-549 cells; A-549, 24 h, 75 μM): 12 ± 1%
S (A-549 cells; A-549, 24 h, 75 μM): 3 ± 2%
Effect on the cell cycle (A-549 cells; [11]): do not exert any significant effect on the cells

COc1ccc(/C=C\c2cc(OC)c(OC)c(OC)c2)cc1NC(=O)[C@@H](N)CCSC [Compound 8.9]
mrna remaining at 0.004 µM (VEGF gene; [15]): 48%
mrna remaining at 0.004 µM (c-Myc gene; [15]): 70%
IC50 [1, 5]: < 5 nM
IC50 ([1]; Table 2): 3.7 ± 0.3 nM
IC50 [2, 6]: < 5 nM
IC50 ([2]; Table 2): 3.4 ± 1.2 nM
CrC (critical concentration) (purified tubulin): 8.5 ± 1.2 µM
G0/G1 (A-549 cells; A-549, 24 h, 0.2 µM): 30 ± 1%
G2/M (A-549 cells; A-549, 24 h, 0.2 µM): 51 ± 2%
S (A-549 cells; A-549, 24 h, 0.2 µM): 19 ± 1%

COc1ccc(/C=C\c2cc(OC)c(OC)c(OC)c2)cc1O [CA-4, combretastatin A-4]
mrna remaining at 15 µM (VEGF gene; [16]): 40%
mrna remaining at 15 µM (c-Myc gene; [16]): 35%
IC50 ([1]; Homo sapiens, HEK293, Table 1): 25000 ± 3000 nM
IC50 ([2]; Homo sapiens, MCF7, Table 1): 1000 ± 200 nM
CrC (critical concentration) (purified tubulin): 21.5 µM and 21.5 ± 0.8 µM
cells accumulated in the G2/M phase (A-549 cells; 24 h): 60%
G0/G1 (A-549 cells; A-549, 24 h, 0.05 μM): 25 ± 1%
G2/M (A-549 cells; A-549, 24 h, 0.05 μM): 60 ± 2%
S (A-549 cells; A-549, 24 h, 0.05 μM): 15 ± 1%

COc1ccc(/C=C\c2cc(OC)c(OC)c(OC)c2)cc1NC(=O)[C@H](C)N [Compound 8.2]
mrna remaining at 0.003 µM (VEGF gene; [17]): 84%
mrna remaining at 0.003 µM (c-Myc gene; [17]): 97%
IC50 [1, 5]: < 5 nM
IC50 ([1]; Table 2): 4 ± 0.1 nM
IC50 [2, 6]: < 5 nM
IC50 ([2]; Table 2): 4.8 ± 0.5 nM
CrC (critical concentration) (purified tubulin): 13.9 ± 1.5 µM
G0/G1 (A-549 cells; A-549, 24 h, 3 µM): 28 ± 1%
G2/M (A-549 cells; A-549, 24 h, 3 µM): 58 ± 5%
S (A-549 cells; A-549, 24 h, 3 µM): 14 ± 4%

COc1ccc(/C=C\c2cc(OC)c(OC)c(OC)c2)cc1NC(=O)[C@@H](N)C(C)C [Compound 8.3]
mrna remaining at 0.01 µM (VEGF gene; [18]): 33%
mrna remaining at 0.01 µM (c-Myc gene; [18]): 62%
IC50 [1, 5]: 7.6 ± 0.3 nM
IC50 [2, 6]: 13 ± 2 nM
CrC (critical concentration) (purified tubulin): 9.3 ± 0.5 µM
G0/G1 (A-549 cells; A-549, 24 h, 2 µM): 65 ± 2%
G2/M (A-549 cells; A-549, 24 h, 2 µM): 15 ± 2%
S (A-549 cells; A-549, 24 h, 2 µM): 20 ± 1%
Effect on the cell cycle (A-549 cells; [11]): do not accumulate a high percentage of cells in phase G2/M

COc1ccc(/C=C\c2cc(OC)c(OC)c(OC)c2)cc1NC(=O)CN [Compound 8.1]
mrna remaining at 0.007 µM (VEGF gene; [4]): 24%
mrna remaining at 0.007 µM (c-Myc gene; [4]): 54%
IC50 [1, 5]: 10 ± 2 nM
IC50 [2, 6]: 9 ± 4 nM
CrC (critical concentration) (purified tubulin): 10.2 ± 1.8 µM
G0/G1 (A-549 cells; A-549, 24 h, 2 µM): 32 ± 5%
G2/M (A-549 cells; A-549, 24 h, 2 µM): 46 ± 4%
S (A-549 cells; A-549, 24 h, 2 µM): 22 ± 2%

COc1ccc(/C=C\c2cc(OC)c(OC)c(OC)c2)cc1OCC(=O)N[C@H](C(=O)O)C(C)C [Compound 4.2]
mrna remaining at 25 µM (VEGF gene; [19]): 89%
mrna remaining at 25 µM (c-Myc gene; [19]): 71%
IC50 ([1]; Homo sapiens, HEK293, Table 1): 4000 ± 1000 nM
IC50 ([2]; Homo sapiens, MCF7, Table 1): 7000 ± 1000 nM
CrC (critical concentration) (purified tubulin): 9.3 ± 0.3 µM
G0/G1 (A-549 cells; A-549, 24 h, 50 μM): 17 ± 2%
G2/M (A-549 cells; A-549, 24 h, 50 μM): 67 ± 4%
S (A-549 cells; A-549, 24 h, 50 μM): 16 ± 3%
cells accumulated in the G2/M phase (A-549 cells; [7]): 50–70%

COc1ccc(/C=C\c2cc(OC)c(OC)c(OC)c2)cc1NC(=O)[C@@H](N)Cc1ccccc1 [Compound 8.5]
mrna remaining at 0.004 µM (VEGF gene; [15]): 37%
mrna remaining at 0.004 µM (c-Myc gene; [15]): 74%
IC50 [1, 5]: < 5 nM
IC50 ([1]; Table 2): 3.5 ± 1.9 nM
CrC (critical concentration) (purified tubulin): 9.1 ± 0.9 µM
G0/G1 (A-549 cells; A-549, 24 h, 0.5 µM): 46 ± 2%
G2/M (A-549 cells; A-549, 24 h, 0.5 µM): 26 ± 10%
S (A-549 cells; A-549, 24 h, 0.5 µM): 28 ± 11%
